According to ChEMBL document CHEMBL3885861, “Open TG-GATES”:

Species: Rattus norvegicus
Assay: Open TG-GATES - Regimen: Single
Type: toxicity, organism-based, Sprague-Dawley
Design: regimen Single, gender Male, age 6 weeks
Conditions: in vivo, po, 1000 mg/kg, route gavage, dose level Middle; for APTT / Bas / Eos / Fbg / Hb / Ht / Lym / MCH / MCHC / MCV / Mono / Neu / PT / Plat / RBC / Ret / WBC: tissue Blood; for KIDNEY_L / KIDNEY_R / KIDNEY_TOTAL: tissue Kidney; for LIVER: tissue Liver; for A/G / ALP / ALT / AST / BUN / CRE / Ca / Cl / DBIL / GLC / IP / K / LDH / Na / PL / RALB / TBIL / TC / TG / TP / gamma-GTP: tissue Plasma

CCOc1ccc(NC(=O)CC(C)O)cc1 (configuration not stated) [BUCETIN]
TERMINAL_BW (3 h): 211.2 g | APTT (3 h): 14.7 s | Bas (3 h): 0% | Eos (3 h): 1% | Fbg (3 h): 303 mg/dL | Hb (3 h): 13 g/dL | Ht (3 h): 38.6% | Lym (3 h): 78.4% | MCH (3 h): 20.6 pg | MCHC (3 h): 33.7% | MCV (3 h): 61.2 fL | Mono (3 h): 2% | Neu (3 h): 18.2% | PT (3 h): 13.5 s | Plat (3 h): 123 x10_4/uL | RBC (3 h): 630.8 x10_4/ul | Ret (3 h): 7.9% | WBC (3 h): 70.9 x10_2/uL | KIDNEY_L (3 h): 0.9 g | KIDNEY_R (3 h): 1 g | KIDNEY_TOTAL (3 h): 1.9 g | LIVER (3 h): 9.1 g | A/G (3 h): 0.9 | ALP (3 h): 1363.2 IU/L | ALT (3 h): 33 IU/L | AST (3 h): 65.6 IU/L | BUN (3 h): 8.4 mg/dL | CRE (3 h): 0.1 mg/dL | Ca (3 h): 10.5 mg/dL | Cl (3 h): 104.6 meq/L | DBIL (3 h): 0.03 mg/dL | GLC (3 h): 182.2 mg/dL | IP (3 h): 9.1 mg/dL | K (3 h): 4.2 meq/L | LDH (3 h): 66.6 IU/L | Na (3 h): 141.4 meq/L | PL (3 h): 137.4 mg/dL | RALB (3 h): 2.5 g/dL | TBIL (3 h): 0.05 mg/dL | TC (3 h): 73.6 mg/dL | TG (3 h): 51.6 mg/dL | TP (3 h): 5.2 g/dL | gamma-GTP (3 h): 1.4 IU/L | TERMINAL_BW (6 h): 208.9 g | APTT (6 h): 19.8 s | Bas (6 h): 0% | Eos (6 h): 1% | Fbg (6 h): 317 mg/dL | Hb (6 h): 13.3 g/dL | Ht (6 h): 39.5% | Lym (6 h): 77% | MCH (6 h): 20.9 pg | MCHC (6 h): 33.6% | MCV (6 h): 62.1 fL | Mono (6 h): 2.6% | Neu (6 h): 19% | PT (6 h): 13.7 s | Plat (6 h): 118.7 x10_4/uL | RBC (6 h): 636.6 x10_4/ul | Ret (6 h): 7.8% | WBC (6 h): 61.8 x10_2/uL | KIDNEY_L (6 h): 0.9 g | KIDNEY_R (6 h): 0.9 g | KIDNEY_TOTAL (6 h): 1.8 g | LIVER (6 h): 8.3 g | A/G (6 h): 0.9 | ALP (6 h): 1231.6 IU/L | ALT (6 h): 29 IU/L | AST (6 h): 64.4 IU/L | BUN (6 h): 8.6 mg/dL | CRE (6 h): 0.2 mg/dL | Ca (6 h): 10.7 mg/dL | Cl (6 h): 105.4 meq/L | DBIL (6 h): 0.036 mg/dL | GLC (6 h): 186.8 mg/dL | IP (6 h): 10.3 mg/dL | K (6 h): 4.2 meq/L | LDH (6 h): 57.8 IU/L | Na (6 h): 142 meq/L | PL (6 h): 139 mg/dL | RALB (6 h): 2.6 g/dL | TBIL (6 h): 0.062 mg/dL | TC (6 h): 82.2 mg/dL | TG (6 h): 28.4 mg/dL | TP (6 h): 5.5 g/dL | gamma-GTP (6 h): 1 IU/L | TERMINAL_BW (9 h): 204.6 g | APTT (9 h): 16.1 s | Bas (9 h): 0% | Eos (9 h): 0.6% | Fbg (9 h): 311.6 mg/dL | Hb (9 h): 13.6 g/dL | Ht (9 h): 40.3% | Lym (9 h): 78.8% | MCH (9 h): 21.1 pg | MCHC (9 h): 33.8% | MCV (9 h): 62.4 fL | Mono (9 h): 2.2% | Neu (9 h): 17.8% | PT (9 h): 14.2 s | Plat (9 h): 125.3 x10_4/uL | RBC (9 h): 646.4 x10_4/ul | Ret (9 h): 8.3% | WBC (9 h): 48.8 x10_2/uL | KIDNEY_L (9 h): 0.9 g | KIDNEY_R (9 h): 0.9 g | KIDNEY_TOTAL (9 h): 1.8 g | LIVER (9 h): 8.2 g | A/G (9 h): 0.9 | ALP (9 h): 1308.4 IU/L | ALT (9 h): 29.6 IU/L | AST (9 h): 62.6 IU/L | BUN (9 h): 7.6 mg/dL | CRE (9 h): 0.1 mg/dL | Ca (9 h): 10.6 mg/dL | Cl (9 h): 106 meq/L | DBIL (9 h): 0.04 mg/dL | GLC (9 h): 196.6 mg/dL | IP (9 h): 9.8 mg/dL | K (9 h): 4 meq/L | LDH (9 h): 56.2 IU/L | Na (9 h): 142.4 meq/L | PL (9 h): 130.6 mg/dL | RALB (9 h): 2.6 g/dL | TBIL (9 h): 0.054 mg/dL | TC (9 h): 71.6 mg/dL | TG (9 h): 26.2 mg/dL | TP (9 h): 5.5 g/dL | gamma-GTP (9 h): 1 IU/L | TERMINAL_BW (24 h): 208.1 g | APTT (24 h): 23.5 s | Bas (24 h): 0% | Eos (24 h): 1% | Fbg (24 h): 268.6 mg/dL | Hb (24 h): 13.4 g/dL | Ht (24 h): 40.5% | Lym (24 h): 77.6% | MCH (24 h): 20.7 pg | MCHC (24 h): 33.2% | MCV (24 h): 62.3 fL | Mono (24 h): 3% | Neu (24 h): 18% | PT (24 h): 15.1 s | Plat (24 h): 125 x10_4/uL | RBC (24 h): 650.2 x10_4/ul | Ret (24 h): 7.5% | WBC (24 h): 77.3 x10_2/uL | KIDNEY_L (24 h): 1 g | KIDNEY_R (24 h): 1 g | KIDNEY_TOTAL (24 h): 1.9 g | LIVER (24 h): 8.9 g | A/G (24 h): 0.9 | ALP (24 h): 1549 IU/L | ALT (24 h): 48 IU/L | AST (24 h): 92.2 IU/L | BUN (24 h): 16 mg/dL | CRE (24 h): 0.2 mg/dL | Ca (24 h): 10.8 mg/dL | Cl (24 h): 106.8 meq/L | DBIL (24 h): 0.03 mg/dL | GLC (24 h): 169.6 mg/dL | IP (24 h): 8.1 mg/dL | K (24 h): 4.2 meq/L | LDH (24 h): 93.8 IU/L | Na (24 h): 144.2 meq/L | PL (24 h): 154 mg/dL | RALB (24 h): 2.6 g/dL | TBIL (24 h): 0.07 mg/dL | TC (24 h): 86.4 mg/dL | TG (24 h): 66.2 mg/dL | TP (24 h): 5.6 g/dL | gamma-GTP (24 h): 1 IU/L
